Test results as given in patent publication US20240366649A1, “4-ETHYNYL-3-HYDROXY-TETRAHYDROFURANYL-ADENINE PHOSPHORAMIDATES AND RELATED COMPOUNDS AND THEIR USE IN TREATING MEDICAL CONDITIONS” (ROME THERAPEUTICS, INC., priority 2021, published 2024).

Columns and labels:
[1] = test system: IFN production in THP1 TREX1 KO cells; assay: Cellular assay for altering IFN production in THP1 TREX1 KO cells; format: cell-based; settings: FIG. 6-8, % induction versus compound concentration
Method: THP1-Dual™ KO-TREX1 cells were purchased from Invivogen (cat #thpd-kotrex). The THP1-Dual™ KO-TREX1 cells were cultured in RPMI 1640, 10% heat-inactivated fetal bovine serum, 25 mM HEPES, 10 μg/mL Blasticidin, and […] Zeocin. THP1-Dual™ KO-TREX cells were treated with a dose titration of test compound in the presence of 1 μM 5-aza-2′-deoxycytidine (Sigma, cat #189825). Type 1 Interferon and cell viability were assessed after five days of treatment.
Stock solution of test compound was prepared in DMSO followed by a three-fold dilution in DMSO. Additional 50× dilution was prepared in cell culture media for each dilution. 10 μL of diluted test compound was then added to a 384-well plate.
THP1-Dual™ KO-TREX1 cells were treated with 1 μM 5-aza-2′-deoxycytidine. THP1-Dual™ KO-TREX1 cells (50 μL) were added to each well of the 384-well plate containing test compound titration at 10,000 cells/well. Cells were incubated at 37° C., 5% CO2 in a humidified incubator for five days. On day five, 20 μL of cell supernatant was transferred to a 384-well, white-walled plate, followed by addition to each well of 50 μL of QUANTI-LUC solution containing stabilizer. Luminescence was detected on a plate reader according to manufacturer's instructions.
For certain compounds, the assay was run in a 96-well format, with the following modifications: • 190 μL, instead of 50 μL, of cells were added to each well, to provide 50,000 cells/well, instead of 10,000 cells/well, • Cells were incubated for 6 days, instead of 5 days, • 25 μL, instead of 20 μL, of cell supernatant was added to the white-walled plate for QUANT-LUC treatment; and • 25 μL, instead of 30 μL, of CellTiter-Glo was added to assess cell viability.
Percent inhibition of interferon was calculated using the following analysis: (Average DMSO-Sample)/(Average DMSO-Average 30 μM control reagent)*100. The control reagent for inhibition of interferon was a specific nucleoside reverse-transcriptase inhibitor with molecular weight <600 a.m.u. Percent induction of interferon was calculated using the following analysis: (Sample-Average DMSO)/(10 μM control reagent-Average DMSO)*100. The control reagent for induction of interferon was compound 8 (4′-ethynyl-2-chloro-2′-deoxyadenosine).

[2] = test system: Ovarian cancer SK-OV-3 cells; assay: Cancer cell viability assay with 3D cell colonies (CellTiter-Glo), SK-OV-3; format: cell-based; settings: Homo sapiens, 168 h; SK-OV-3, 3D methylcellulose colonies, 7 days
Method: Cancer cell lines were cultured in the following media: • Ovarian cancer OVCAR-8 cells—RPMI media containing 10% FBS • Ovarian cancer SK-OV-3 cells—McCoy's 5a media containing 10% FBS • Ovarian cancer SW756 cells—L-15 (100% air)+10% FBS • Esophageal cancer TE-1 cells—RPMI-1640+10% FBS • Esophageal cancer KYSE-410 cells—RPMI-1640+5˜10% FBS • Esophageal cancer KYSE-70 cells—RPMI-1640+10% h.i.FBS. • Pharyngeal cancer FaDu cells—MEM+0.01 mM NEAA+10% FBS
Cell colony formation was tested using a 3D methylcellulose-based CellTiter-Glo (CTG) viability assay (Cat. No: G7573, Promega). Briefly, cells were inoculated into 96-well plates (at 1,500 cells per well) into a solution of 0.65% methylcellulose in growth media and incubated overnight at 37° C. in 5% CO2. The next day, serially diluted test compound (islatravir, 4′-ethynyl-2-fluoro-2′-deoxyadenosine) or positive control (cisplatin, Cat. No. 6J015A89, Qilu Pharma) were added at the indicated concentrations, and the cells were incubated for 7 days. On day seven, 100 μL of CTG reagent was added, and the plates were incubated at room temperature for 20 min. Luminescence was read on an Envision Multi Label Reader according to manufacturer's instructions. IC50 values were determined using the following calculation: […]

[3] = test system: interferon-stimulated gene (ISG) expression; assay: In vivo decitabine challenge model; design: species or system C57BL/6 mice; settings: mice; decitabine i.p. 5 mg/kg and islatravir p.o. 0.6-6.0 mg/kg once a day Day 0 to Day 4; IFIT2 v. GAPDH
Method: Twenty 9-11 week old C57BL/6 mice were acclimated to the lab for at least 5 days. Islatravir (4′-ethynyl-2-fluoro-2′-deoxyadenosine) was prepared in a 0.5% methylcellulose solution for p.o. administration. Decitabine (Sigma) was dissolved in sterile PBS (pH 7.4) and dosed within 30 minutes of preparation of the solution. Doses of both islatravir and decitabine were administered once a day, every day from Day 0 to Day 4.
On Day 0, mice were split into four groups of five mice and given their first dose of decitabine (i.p., 5 mg/kg) and […]. Dosing groups were:
Decitabine and islatravir were administered daily from Day 0 to Day 4. All mice were euthanized 1 hour after the last dose administration on Day 4. Spleens, liver, and terminal colon were collected, along with plasma from each animal. The fold changes in interferon-stimulated gene (ISG) expression was calculated by first normalizing to GAPDH gene using the Delta CT method. The CT (gene of interest)−CT (reference gene) was calculated to generate a delta CT for all samples. The fold change was then calculated by taking the […](Delta CT(control)−Delta CT (experimental). The control in this example was the PBS control animal group. The Taqman duplex assay (Thermo Fisher 4331182 and 4448489) was used according to the manufacturer's instructions to determine levels of GAPDH v. IFIT2.

[4] = target: LINE1 reverse transcriptase (Homo sapiens, UniProt O00370); assay: Stable artificial-intron Cis LINE1 reporter assay; format: cell-based; design: expressed in transfected cells; settings: HeLa L1 artificial-intron reporter cells, doxycycline-induced, 72 h, Firefly luciferase activity
Source text: A stable HeLa Tet-On 3G (Takara, cat no 631183) cell line expressing a bi-directional inducible LINE1 construct was generated as described in Xie, Y. et al. “Cell division promotes efficient retrotransposition in a stable L1 reporter cell line,” Mobile DNA (2013) 4:10. Single cell clones were screened for high Luciferase expression and the highest expression Firefly expressing clone was chosen for compound testing.
Test compounds were serially diluted in DMSO and spotted in 96-well plates. Subsequently the HeLa L1 artificial-intron reporter cells were plated into the compound-containing wells (8,000 cells/well), and the cells were induced for reporter expression with doxycycline (Sigma cat no D9891) at a final concentration of 500 ng/mL. Luminescence was measured 72 h after plating using the Dual-Glo Luciferase Assay System (Promega cat no E2940) following the manufacturer's instructions. The Firefly Luciferase activity (normalized against its activity in a control well without test compound) was used to report LINE1 activity.

LINE1 reverse transcriptase, sequence (O00370 whole entry, looked up): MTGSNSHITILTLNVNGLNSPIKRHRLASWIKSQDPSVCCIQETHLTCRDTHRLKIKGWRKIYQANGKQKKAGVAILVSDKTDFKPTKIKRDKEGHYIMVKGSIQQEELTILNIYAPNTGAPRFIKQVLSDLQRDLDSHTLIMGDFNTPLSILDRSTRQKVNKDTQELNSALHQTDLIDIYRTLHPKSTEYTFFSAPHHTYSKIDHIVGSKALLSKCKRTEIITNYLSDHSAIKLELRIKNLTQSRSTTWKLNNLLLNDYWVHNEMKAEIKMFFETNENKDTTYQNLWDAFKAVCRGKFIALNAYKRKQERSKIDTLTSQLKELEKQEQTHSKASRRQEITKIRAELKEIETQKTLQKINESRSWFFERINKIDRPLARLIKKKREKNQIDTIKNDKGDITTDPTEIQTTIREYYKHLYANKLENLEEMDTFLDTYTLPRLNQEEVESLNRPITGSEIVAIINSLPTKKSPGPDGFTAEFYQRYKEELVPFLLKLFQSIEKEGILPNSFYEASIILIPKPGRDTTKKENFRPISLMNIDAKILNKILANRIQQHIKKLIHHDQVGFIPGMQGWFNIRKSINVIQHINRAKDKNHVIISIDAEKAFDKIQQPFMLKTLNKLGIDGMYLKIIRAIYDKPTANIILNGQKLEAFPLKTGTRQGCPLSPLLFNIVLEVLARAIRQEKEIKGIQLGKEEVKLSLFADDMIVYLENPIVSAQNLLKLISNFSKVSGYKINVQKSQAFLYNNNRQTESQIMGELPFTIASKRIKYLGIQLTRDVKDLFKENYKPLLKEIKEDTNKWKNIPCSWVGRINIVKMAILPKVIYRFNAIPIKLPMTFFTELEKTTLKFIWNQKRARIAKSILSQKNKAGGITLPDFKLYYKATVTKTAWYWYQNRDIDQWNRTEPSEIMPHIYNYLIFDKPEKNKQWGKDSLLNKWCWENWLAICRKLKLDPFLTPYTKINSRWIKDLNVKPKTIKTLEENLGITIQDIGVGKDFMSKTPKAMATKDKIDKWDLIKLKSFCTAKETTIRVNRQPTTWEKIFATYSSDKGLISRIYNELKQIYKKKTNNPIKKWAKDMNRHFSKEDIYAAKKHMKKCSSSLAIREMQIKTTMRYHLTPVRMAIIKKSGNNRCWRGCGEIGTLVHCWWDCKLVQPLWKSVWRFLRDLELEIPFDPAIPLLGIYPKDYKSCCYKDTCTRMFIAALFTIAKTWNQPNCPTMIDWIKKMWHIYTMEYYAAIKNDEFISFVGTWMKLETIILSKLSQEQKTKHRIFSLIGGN

Question: Which results are given for `C#C[C@]1(CO)O[C@@H](n2cnc3c(N)nc(F)nc32)C[C@@H]1O` [islatravir, 4′-ethynyl-2-fluoro-2′-deoxyadenosine]?
Answer: change in IFN levels (figure) [1]: induction of IFN; IC50 [2]: ≤ 10 µM; interferon-stimulated gene (ISG) response [3]: showed the change in ISG response; IC50 [4]: ≤ 0.05 µM
